# Laboratory results as given in patent publication US7956085B2, “1,4-benzothiepine 1,1-dioxide derivatives substituted by benzyl radicals, method for their preparation, pharmaceuticals comprising these compounds, and the use thereof” (Sanofi-Aventis Deutschland GmbH, priority 2006, dated 2011).
# Target: T1, human IBAT (Homo sapiens, UniProt Q12908)
# T1 construct: Bases 599 to 1645 correspond to the complete coding region of human IBAT; expressed in transfected cells
# T1 sequence (Q12908 1-348): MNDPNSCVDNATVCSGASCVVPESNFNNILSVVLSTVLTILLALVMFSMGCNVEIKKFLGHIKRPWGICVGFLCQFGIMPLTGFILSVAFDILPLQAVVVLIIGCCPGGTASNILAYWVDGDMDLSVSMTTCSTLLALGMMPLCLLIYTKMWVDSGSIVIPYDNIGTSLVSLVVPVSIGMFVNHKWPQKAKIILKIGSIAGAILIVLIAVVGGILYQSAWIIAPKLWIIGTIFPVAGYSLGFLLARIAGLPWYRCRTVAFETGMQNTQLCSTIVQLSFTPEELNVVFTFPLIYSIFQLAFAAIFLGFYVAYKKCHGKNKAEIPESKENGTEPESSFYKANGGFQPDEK
# Test: In vitro IBAT inhibition assay: IBAT-dependent uptake of [3H]-taurocholic acid into CHO-hIBAT cells
# Assay type: cell-based
# Settings: 10 μM taurocholic acid, 60 min at room temperature, read-out: IC-50 (human IBAT)
# From the text: Preparation and Procedure for the In Vitro IBAT Inhibition Assay:
# 1. Cloning of an Expression Vector for Human IBAT
# The cDNA (complementary deoxyribonucleic acid) of human IBAT was cloned by standard methods of molecular biology as described for example in Molecular Cloning: A Laboratory Manual by Joseph Sambrook and David Russell, and introduced into the pcDNA1 vector from Invitrogen. […] Bases 599 to 1645 correspond to the complete coding region of human IBAT.
# 2. Preparation of a Recombinant Cell Line with Constitutive Expression of Human IBAT
# The expression vector for human IBAT was introduced by stable transfection into CHO (chinese hamster ovary) cells. To select single cell clones, 400 μg/ml Geneticin was added to the cell culture medium (Ham's F12 medium supplemented with 10% fetal calf serum, 100 units/ml penicillin, 100 units/ml streptomycin). The functionality of the single cell clones resulting from the selection was assayed via their uptake activity for radiolabeled taurocholic acid ([^3H]-TCA). The cell clone with the highest uptake activity for [^3H]-TCA, referred to hereinafter as CHO-hIBAT, was selected for the further assays and further cultured in the presence of 400 μg/ml Geneticin.
# 3. Measurement of The Inhibitory Effect of The Compound of The Invention on The IBAT-Dependent Uptake of Taurocholic Acid into Cells
# CHO-hIBAT cells were seeded in a concentration of 40 000 cells per well in poly-D-lysine-coated 96-well plates in cell culture medium and cultured for 24 h. The cells were then washed once with sodium-free transport assay buffer (140 mM choline chloride, 2 mM potassium chloride, 1 mM magnesium chloride, 1 mM calcium chloride, 10 mM HEPES/Tris, pH 7.5) and subsequently incubated either with sodium-free transport assay buffer as negative control or with sodium-containing transport assay buffer (140 mM sodium chloride, 2 mM potassium chloride, 1 mM magnesium chloride, 1 mM calcium chloride, 10 mM HEPES/Tris, pH 7.5) as positive control at room temperature for 30 min. At the same time, the assay wells were also incubated in the presence of the compound to be investigated in varying concentration in sodium-containing transport assay buffer at room temperature for 30 min. The test substances were appropriately diluted in transport assay buffer (40 μl/well) starting from a 10 mM stock solution in dimethyl sulfoxide. The assay was then started by adding 10 μl/well of a mixture of radiolabeled taurocholic acid ([^3H]-TCA) and unlabeled taurocholic acid. The final concentration of taurocholic acid in the assay was 10 μM. After an incubation time of 60 min at room temperature, the reaction was stopped by adding 100 μl/well of sodium-free transport assay buffer (4° C.), and each well was washed three times with sodium-free transport assay buffer. Finally, 100 μl of scintillation fluid were added to each well, and the radioactivity taken up into the cells was determined in a MicroBeta Scintillation Microplate Reader from Wallac.
# The half-maximum inhibitory effect of the test compound (IC50 value, inhibitory concentration 50) was determined in the following way: • 1. Determination of the value for 0% inhibition. This is the measurement in the absence of substance, measured in sodium-containing transport assay buffer. • 2. Determination of the value for 100% inhibition. This is the measurement in the absence of substance, measured in sodium-free transport assay buffer. • 3. Calculation of the percentage inhibitions of those measurements carried out in the presence of various concentrations of the compound to be investigated. It was then possible to find therefrom the concentration of the compound which reduces the uptake of taurocholic acid by 50% (IC50 value).
row,SMILES,IC50 [nM]
1,CCCCC1(CCCC)CS(=O)(=O)c2ccc(N(C)C)cc2[C@@H](c2cccc(NC(=O)N[C@@H]3O[C@H](COS(=O)(=O)O)[C@@H](O)[C@H](OCc4ccccc4)[C@H]3O)c2)[C@H]1O [Example 6],10.7
2,CCCC[C@]1(CC)CS(=O)(=O)c2ccc(N(C)C)cc2[C@@H](c2cccc(NC(=O)N[C@@H]3O[C@H](COS(=O)(=O)O)[C@@H](O)[C@H](OCc4ccccc4)[C@H]3O)c2)[C@H]1O [Example 4],2.4
3,CCCC[C@]1(CC)CS(=O)(=O)c2ccc(N(C)C)cc2[C@@H](c2cccc(NC(=O)N[C@@H]3O[C@H](COCc4ccccc4)[C@@H](O)[C@H](OCc4ccccc4)[C@H]3O)c2)[C@H]1O [Example 3],3.5
4,CCCC[C@]1(CC)CS(=O)(=O)c2ccc(N(C)C)cc2[C@@H](c2cccc(NC(=O)N[C@@H]3O[C@H](COS(=O)(=O)O)[C@@H](OS(=O)(=O)O)[C@H](OCc4ccccc4)[C@H]3O)c2)[C@H]1O [Example 5],2

# Other lines, results leading:
row,IC50 [nM],SMILES
1,4.4,CCCC[C@]1(CC)CS(=O)(=O)c2ccc(N(C)C)cc2[C@@H](c2cccc(NC(=O)N[C@@H]3O[C@H](CO)[C@@H](O)[C@H](OCc4ccccc4)[C@H]3O)c2)[C@H]1O [Example 1]
2,6.9,CCCCC1(CCCC)CS(=O)(=O)c2ccc(N(C)C)cc2[C@@H](c2cccc(NC(=O)N[C@@H]3O[C@H](CO)[C@@H](O)[C@H](OCc4ccccc4)[C@H]3O)c2)[C@H]1O [Example 2]
